Tests used:
[1] = RU-486 and emetine composition pharmacokinetics study (RU-486 blood concentrations by HPLC); format: in vivo; conditions: human, plasma, po, one tablet (10 mg RU-486) orally, eight subjects per group
Description: Experiment 4: RU-486 and Emetine Composition Pharmacokinetics Studies
The studies were carried out with two test groups in parallel. The first group used the composite tablets according to preparation I described below (10 mg RU-486 and 8.4 mg emetine). The control group used tablets containing only 10 mg RU-486. The two types of tablets were similarly prepared, and they had the same appearance. A total of sixteen test subjects were involved, eight in each group. Each test subject was given one pill and blood samples were collected at 0, 0.33, 0.5, 0.75, 1, 1.5, 2, 3, 4, 6, 8, 12, 24, 48, 72, 96, and 120 hours for the determination of RU-486 concentrations in order to calculate Cmax, Tmax, AUC0-120, AUC0-∞, and T1/2 pharmacokinetics parameters.
Experiment 5: Analysis of Pharmacokinetics Samples
RU-486 blood concentration determinations: The analysis used calibrated HPLC. Calibration was performed for a concentration range from 5 to 5000 ng/ml. The internal standard for the analysis was metoclopramide, at 20 ng/ml, 400 ng/ml, and 4000 ng/ml as quality control. The lowest detectable concentration (LOQ) is 5 ng/ml.
Plasma sample preparation: Plasma (0.2 ml) was placed in a test tube, to which metoclopramide (25 μL; 7.5 ng/μL) was added as internal standard, followed by 50 μL of 0.2 M K2HPO4. The mixture was mixed by shaking for 30 seconds. Then, 3 ml of tert-butyl methyl ether was added as the extraction reagent. The mixture was mixed by shaking for 60 seconds before centrifuged at 3,000 rpm for 5 minutes. The upper clear solution was removed and placed into another test tube. This clear solution was dry with a stream of N2. To the dried residue, 200 μL of mobile phase was added. The tube was shaken for 60 seconds. Each injection used 30 μL of sample.

pregnancy [2] = conditions: cited from earlier work
menstrual cycle = conditions: RU-486 given late in the follicular phase; cited from earlier work
pregnancy [3] = conditions: RU-486 at 50 mg or 10 mg; cited from earlier work

Compound: CC#C[C@]1(O)CC[C@H]2[C@@H]3CCC4=CC(=O)CCC4=C3[C@@H](c3ccc(N(C)C)cc3)C[C@@]21C [Mifepristone, 17β-hydroxy-11β-(4-dimethylaminophenyl)-17α-(1-propynyl)-estra-4,9-dien-3-one]
- Tmax [1]: 0.91 ± 0.19 h
- AUC(0-t) ([1]; read-out: AUC0-120 of RU-486): 8720 ± 1470 ng·h/mL
- AUC(0-inf) ([1]; read-out: AUC0-∞ of RU-486): 9420 ± 1550 ng·h/mL
- half-life ([1]; read-out: T1/2 of RU-486 (converted)): 35.2 ± 2.86 h
- result with abortion (pregnancy [2]; 200 mg or 150 mg of RU-486): good results with abortion
- success rate of early termination of pregnancy (pregnancy [2]; 600 mg RU-486 and 400 mg misprostol, within the first 49 days of pregnancy): 97%
- prolongation of the follicular phase (menstrual cycle): 10 to 15 days
- morning after pregnancy prevention effect (pregnancy [3]): same effect as 500 mg
